Laboratory results: patent publication US20230091671A1 (priority 2020, published 2023)
Where a name gives a salt, the structure may show the parent alone.

Key:
[1] = cited from earlier work
[2] = cited from earlier work; remark: listed apart in the source
[3] = in vivo; cited from earlier work
α1-AR 1D = biological target: T1, α1-AR 1D (Homo sapiens, UniProt P25100); type: binding
T1 construct: expressed in transfected cells; host or cells: HEK-293
T1 sequence (P25100 1-572): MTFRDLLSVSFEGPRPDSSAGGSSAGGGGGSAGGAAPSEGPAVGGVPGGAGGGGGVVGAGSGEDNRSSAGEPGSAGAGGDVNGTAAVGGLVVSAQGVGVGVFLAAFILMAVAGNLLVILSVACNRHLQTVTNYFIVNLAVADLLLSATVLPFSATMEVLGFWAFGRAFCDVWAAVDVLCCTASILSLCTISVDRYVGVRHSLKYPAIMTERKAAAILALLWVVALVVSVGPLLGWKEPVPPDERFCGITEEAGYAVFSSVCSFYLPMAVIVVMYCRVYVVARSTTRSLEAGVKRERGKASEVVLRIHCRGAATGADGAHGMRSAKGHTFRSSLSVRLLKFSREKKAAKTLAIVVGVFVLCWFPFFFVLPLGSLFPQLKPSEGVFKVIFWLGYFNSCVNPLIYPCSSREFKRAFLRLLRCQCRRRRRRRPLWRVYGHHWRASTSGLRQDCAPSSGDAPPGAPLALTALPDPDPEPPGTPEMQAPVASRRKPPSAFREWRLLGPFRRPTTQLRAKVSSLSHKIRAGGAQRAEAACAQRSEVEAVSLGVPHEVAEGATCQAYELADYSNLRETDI

[4] = biological target: T2, 1A subtype (α-1 adrenergic receptor) (Homo sapiens, UniProt P35348); conditions: cited from earlier work
T2 sequence (P35348 1-466): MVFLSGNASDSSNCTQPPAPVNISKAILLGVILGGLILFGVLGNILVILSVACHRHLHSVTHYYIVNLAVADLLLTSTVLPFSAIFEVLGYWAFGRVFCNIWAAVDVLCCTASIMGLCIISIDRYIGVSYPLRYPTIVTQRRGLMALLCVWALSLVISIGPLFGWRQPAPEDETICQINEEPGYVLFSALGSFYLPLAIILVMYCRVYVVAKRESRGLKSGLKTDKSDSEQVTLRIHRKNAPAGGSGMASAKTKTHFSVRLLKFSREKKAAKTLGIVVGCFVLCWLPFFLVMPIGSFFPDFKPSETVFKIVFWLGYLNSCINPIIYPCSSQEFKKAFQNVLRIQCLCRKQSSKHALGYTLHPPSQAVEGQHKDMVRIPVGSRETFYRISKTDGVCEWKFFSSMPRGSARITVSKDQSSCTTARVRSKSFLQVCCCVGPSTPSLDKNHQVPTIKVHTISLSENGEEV

[5] = test system: VC and laryngeal muscles/laryngospasm; conditions: rat model; cited from earlier work
[6] = recommended single intravenous injection
[7] = single intramuscular and intravenous doses
[8] = subcutaneous injection of 10 mg

For COc1cc2nc(N(C)CCCNC(=O)C3CCCO3)nc(N)c2cc1OC.Cl (racemic) [ALFUZOSIN, (R,S)-N-[3-[(4-amino-6,7-dimethoxy-2-quinazolinyl)methylamino]propyl]tetrahydro-2-furancarboxamide hydrochloride], the dizziness ([1]; clinical test subjects) is given as 6%, the hypotension ([1]; clinical test subjects) is given as 0.4% and the syncope ([1]; clinical test subjects) is given as 0.2%.

In the case of COc1cc2nc(N3CCN(C(=O)C4CCCO4)CC3)nc(N)c2cc1OC.Cl (racemic) [TERAZOSIN, (RS)-Piperazine,1-(4-amino-6,7-dimethoxy-2-quinazolinyl)-4-[(tetra-hydro-2-furanyl)carbonyl]-, monohydrochloride, dihydrate], the syncope ([1]; clinical test subjects) is listed as 0.6% and the postural hypotension ([1]; trial of 600 subjects) is listed as 4%.

For CCN1CC(CCN2CCOCC2)C(c2ccccc2)(c2ccccc2)C1=O (stereo not drawn) [Doxapram hydrochloride, 1-ethyl-4-[2-(4-morpholinyl)ethyl]-3,3-diphenyl-2-pyrrolidinone monohydrochloride, monohydrate], the duration of effect [2, 6] is listed as 5 to 12 min, the “onset of respiratory stimulation” value [2, 6] is listed as 20 to 40 s and the “time of peak effect” value [2, 6] is listed as 1 to 2 min.

For O=C(CCCN1CC=C(n2c(=O)[nH]c3ccccc32)CC1)c1ccc(F)cc1 [Droperidol, 1-[1-[3-(p-Fluorobenzoyl)propyl]-1,2,3,6-tetrahydro-4-pyridyl]-2-benzimidazolinone], the “duration of the tranquilizing and sedative effects” value ([2]; human, in vivo) is given as “two to four hours”, the “persistence of alteration of alertness” value ([2]; human, in vivo) is given as “as long as twelve hours” and the onset of action [2, 7] is given as “three to ten minutes”. For the same compound, the “time until peak effect apparent” value [2, 7] was “up to thirty minutes”.

In the case of CCC(=O)C(CC(C)N(C)C)(c1ccccc1)c1ccccc1 (stereo not drawn) [Methadone], the “metabolism (enzymes / pathway)” value [3] is listed as “CYP3A4, CYP2B6 and CYP2D6”.

For NC[C@H](O)c1ccc(O)c(O)c1 [NE], the “affinity and potency at α1-AR 1D compared with other subtypes” value (α1-AR 1D) was “highest affinity and potency”.

For CN1CCC[C@H]1c1cccnc1 [Nicotine], the “crossing of the blood brain barrier” value [3] is given as “crosses the blood-brain barrier”, the “elimination half-life in the body” value [3] is given as “around two hours” and the half-life [3] is given as 1 to 2 h. For the same compound, the route of excretion [3] was “primarily excreted in urine” and the “time to reach the brain after inhalation” value [3] was 10 to 20 s.

For COc1cc2nc(N3CCN(C(=O)c4ccco4)CC3)nc(N)c2cc1OC.Cl [PRAZOSIN, 1-(4-amino-6,7-dimethoxy-2-quinazolinyl)-4-(2-furoyl) piperazine], the “Syncope and symptoms of hypotension, share of subjects receiving” value ([1]; 1 mg BID/TID titrated up to 20 mg total QD) is listed as 6-12%.

For C[C@H](Cc1cc2c(c(C(N)=O)c1)N(CCCO)CC2)NCCOc1ccccc1OCC(F)(F)F [SILODOSIN, (3-Hydroxypropyl)-5-[(2R)-2-({2-[2-(2,2,2trifluoroethoxy)phenoxy]ethyl}amino)propyl]-2,3-dihydro-1H-indole-7-carboxamide], the “Dizziness and orthostatic hypotension” value ([1]; Study of 897 subjects, 8 mg QD) is given as 3% and the “subjects with syncope / subjects in study” value ([1]; Study of 897 subjects, 8 mg QD) is given as 1/897.

For CCOc1ccccc1OCCN[C@H](C)Cc1ccc(OC)c(S(N)(=O)=O)c1 [TAMSULOSIN, (-)-(R)-5-[2-[[2-(o-Ethoxyphenoxy)ethyl]amino]propyl]-2-methoxybenzenesulfon-amide, monohydrochloride], the “incidence of hypotension, syncope, vertigo” value ([1]; Dose (0.4-0.8 mg QD)) is given as 0.2%-0.6% and the “greater binding affinity at the 1A subtype over other α-1 antagonists” value [4] is given as 12-30 times.

In the case of C=CCN1CC[C@]23c4c5ccc(O)c4O[C@H]2C(=O)CC[C@@]3(O)[C@H]1C5.Cl [naloxone, 17-Allyl-4,5α-epoxy-3,14-dihydroxymorphinan-6-one hydrochloride], the “dose at which naloxone has an effect” value [5] is given as over 0.8 mg/kg.

In the case of CC[C@@H]1C(=O)OC[C@@H]1Cc1cncn1C [pilocarpine HCl], the salivation [2, 8] is given as 1 L and the sweating [2, 8] is given as 0.5 to 1.0 L.
